Measured values reported in the NIST ThermoML archive (doi:10.1021/je500512f).

Experiment: molar heat capacity at constant pressure
Settings: Liquid, Twin Calvet

CC(F)F [1,1-difluoroethane]
molar heat capacity at constant pressure [J/K/mol]
Settings	1490 kPa	2070 kPa	2540 kPa	2950 kPa	3440 kPa	4010 kPa	4600 kPa	5030 kPa
305.15 K	121	121.14	120.81	120.28	119.29	119.55	118.96	118.49
310.15 K	121.8	121.53	121.07	120.81	120.08	119.75	119.35	119.09
315.15 K	123.84	123.25	122.79	122.46	121.8	121.2	120.61	120.41
320.15 K	126.16	125.23	124.77	124.24	123.71	122.99	122.06	121.8
325.15 K	129	127.61	127.01	126.42	125.89	124.97	123.84	123.45
330.15 K	–	130.65	129.79	129.13	128.47	127.41	126.09	125.63
335.15 K	–	134.21	133.22	132.36	131.44	130.18	128.8	128.27
340.15 K	–	–	137.25	136.06	134.94	133.49	131.9	131.31
345.15 K	–	–	141.88	140.36	139.04	137.32	135.34	134.61
350.15 K	–	–	–	146.1	144.05	141.88	139.43	138.51
355.15 K	–	–	–	–	150.66	147.56	144.45	143.2
360.15 K	–	–	–	–	–	155.02	151.06	149.14

COC [dimethyl ether]
molar heat capacity at constant pressure [J/K/mol]
Settings	1460 kPa	2030 kPa	2520 kPa	2930 kPa	3540 kPa	4060 kPa	4580 kPa	5020 kPa
305.15 K	113.19	112.82	112.13	112.36	111.99	111.53	111.26	111.02
310.15 K	113.47	112.91	112.31	112.45	111.72	111.21	111.44	111.3
315.15 K	114.8	114.11	113.6	113.47	112.78	112.13	112.45	112.22
320.15 K	116.23	115.45	115.03	114.89	114.02	113.37	113.56	113.28
325.15 K	117.84	116.92	116.65	116.05	115.31	114.57	114.66	114.3
330.15 K	–	118.86	118.49	117.75	117.01	116.05	116.05	115.59
335.15 K	–	121.34	120.84	120.15	119.27	118.03	117.98	117.38
340.15 K	–	–	123.92	123.09	122.08	120.65	120.52	119.82
345.15 K	–	–	127.75	126.55	125.35	123.92	123.65	122.86
350.15 K	–	–	–	130.65	129.13	127.75	127.19	126.27
355.15 K	–	–	–	–	133.46	131.94	131.06	129.91
360.15 K	–	–	–	–	–	136.82	135.67	134.15
365.15 K	–	–	–	–	–	144.01	142.31	140.42
